Reference: patent US10551389B2, “Target binding molecules identified by kinetic target-guided synthesis” (UNIVERSITY OF SOUTH FLORIDA, priority 2013, dated 2020)

Tests used:
[1] = target: Mcl-1 (Homo sapiens, UniProt Q07820); assay: Inhibition of Mcl-1 (disruption of Mcl-1/Bim interaction); format: binding; settings: for % Inhibition (25 μM) Mcl-1 / inhibition at 25 µM: compound at 25 μM; for % Inhibition (50 μM) Mcl-1 / inhibition at 50 µM: compound at 50 μM
Protocol: (§1) In a subsequent study, a structurally diverse library of forty five thio acids and thirty eight sulfonyl azides (identified above) was screened in parallel against Mcl-1 and Bcl-XL using the above mentioned approach. Several potential hit combinations were identified (Table 3). All of these kinetic TGS hit compounds were synthesized (identified above and in Table 3). All the reactions were performed at 20-30 mg scale. The 9-fluorenylmethyl thioester was placed in a 2.0 mL vial and 3.5% DBU/dry DMF solution was added (per 1 μmol of thioester, 4.7 μL, of 3.5% DBU/dry DMF solution was added) and the reaction was stirred for one minute. Then the sulfonylazide (1 eq to thioester) was added to the reaction mixture and immediately bubbling was observed. After the reaction was completed (approximately one minute, monitored by LC-MS) water (200 μL) was added and the pH was adjusted to 7.0 using 1M HCl solution. The reaction mixture was extracted with DCM until there is no product in the aqueous layer (checked by TLC or LC-MS). The product was purified by flash chromatography. Testing of these acylsulfonamides has shown that the hit compounds disrupt the Bcl-XL/Bim or Mcl-1/Bim interaction (Table 3).

[2] = target: Bcl-XL (Homo sapiens, UniProt Q07817); assay: Inhibition of Bcl-XL (disruption of Bcl-XL/Bim interaction); format: binding; settings: for % Inhibition (25 μM) Bcl-XL / inhibition at 25 µM: compound at 25 μM; for % Inhibition (50 μM) Bcl-XL / inhibition at 50 µM: compound at 50 μM
Protocol: as §1

Chain of Bcl-XL (Q07817 whole entry, species assumed): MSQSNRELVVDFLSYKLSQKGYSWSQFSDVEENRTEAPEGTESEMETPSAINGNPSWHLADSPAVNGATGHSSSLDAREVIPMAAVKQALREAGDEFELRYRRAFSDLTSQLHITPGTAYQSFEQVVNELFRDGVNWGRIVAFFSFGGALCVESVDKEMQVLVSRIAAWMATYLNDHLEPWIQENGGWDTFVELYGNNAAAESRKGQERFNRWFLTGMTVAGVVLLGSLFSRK
Chain of Mcl-1 (Q07820 whole entry, species assumed): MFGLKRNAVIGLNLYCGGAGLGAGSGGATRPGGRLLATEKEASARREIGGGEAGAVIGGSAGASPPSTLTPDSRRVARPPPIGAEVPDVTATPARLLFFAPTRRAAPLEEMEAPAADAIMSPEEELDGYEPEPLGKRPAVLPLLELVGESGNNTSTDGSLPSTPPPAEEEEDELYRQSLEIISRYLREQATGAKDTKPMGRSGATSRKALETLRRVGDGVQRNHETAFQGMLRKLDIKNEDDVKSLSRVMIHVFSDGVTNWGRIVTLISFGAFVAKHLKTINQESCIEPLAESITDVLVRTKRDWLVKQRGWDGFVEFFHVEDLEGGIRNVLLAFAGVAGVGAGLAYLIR

SMILES: O=C(NS(=O)(=O)c1ccc(CN2CCN(c3ccccc3)CC2)cc1)c1ccc(-c2ccc(F)cc2)cc1 [SZ1TA14]
- % Inhibition (25 μM) Mcl-1 [1]: 9.0%
- % Inhibition (50 μM) Mcl-1 [1]: 24.4%
- % Inhibition (25 μM) Bcl-XL [2]: 9.6%
- % Inhibition (50 μM) Bcl-XL [2]: <2.0%

SMILES: CCOc1ccc(-c2ccc3c(c2)c(C(=O)NS(=O)(=O)c2ccc(CN4CCN(c5ccccc5)CC4)cc2)cn3C)cc1F [SZ1TA23]
- % Inhibition (25 μM) Mcl-1 [1]: 18.7%
- % Inhibition (50 μM) Mcl-1 [1]: 21.5%

SMILES: O=C(NS(=O)(=O)c1ccc(CN2CCN(c3ccccc3)CC2)cc1)c1ccc2c(ccn2Cc2ccc(C(F)(F)F)cc2C(F)(F)F)c1 [SZ1TA30]
- % Inhibition (25 μM) Mcl-1 [1]: 11.8%
- % Inhibition (50 μM) Mcl-1 [1]: 2.6%
- % Inhibition (25 μM) Bcl-XL [2]: <2.0%
- % Inhibition (50 μM) Bcl-XL [2]: <2.0%

SMILES: CN(CCc1ccccc1)Cc1ccc(S(=O)(=O)NC(=O)c2ccc(C(c3c[nH]c4ccccc34)c3c[nH]c4ccccc34)cc2)cc1 [SZ2TA31]
- % Inhibition (25 μM) Mcl-1 [1]: 14.2%
- % Inhibition (50 μM) Mcl-1 [1]: 16.2%
- % Inhibition (25 μM) Bcl-XL [2]: 14.9%
- % Inhibition (50 μM) Bcl-XL [2]: 9.4%

SMILES: COc1ccccc1-c1ccc(C(=O)NS(=O)(=O)c2ccc(NCCSc3ccccc3)c([N+](=O)[O-])c2)cc1 [SZ4TA21]
- % Inhibition (25 μM) Mcl-1 [1]: 44.7%
- % Inhibition (50 μM) Mcl-1 [1]: 80.6%

SMILES: O=C(NS(=O)(=O)c1ccc(NCCSc2ccccc2)c([N+](=O)[O-])c1)c1ccc2c(ccn2Cc2ccc(C(F)(F)F)cc2C(F)(F)F)c1 [SZ4TA30]
- IC50 [1]: 26.1 µM
- inhibition at 25 µM [1]: 68.7%
- IC50 [2]: > 50 µM
- inhibition at 25 µM [2]: 41.2%
- inhibition at 50 µM [2]: 42.6%

SMILES: CCOc1ccc(-c2ccc3c(c2)c(C(=O)NS(=O)(=O)c2ccc(CNCCSc4ccccc4)cc2)cn3C)cc1F [SZ6TA23]
- % Inhibition (25 μM) Mcl-1 [1]: <2.0%
- % Inhibition (50 μM) Mcl-1 [1]: <2.0%

SMILES: CC1(C)CCN(c2ccc(C(=O)NS(=O)(=O)c3ccc4ccc(S(=O)(=O)NCCSc5ccccc5)cc4c3)cc2)CC1 [SZ7TA2]
- IC50 [1]: 16.9 µM
- inhibition at 25 µM [1]: 49.6%
- inhibition at 50 µM [1]: 93.9%
- IC50 [2]: 28.6 µM
- inhibition at 25 µM [2]: 15.5%
- inhibition at 50 µM [2]: 73%

SMILES: COc1cc2c(cc1OC)C(c1ccccc1)N(Cc1ccc(S(=O)(=O)NC(=O)c3ccc(N4CCC(C)(C)CC4)cc3)cc1)CC2 (stereo not shown) [SZ8TA2]
- % Inhibition (25 μM) Mcl-1 [1]: 14.8%
- % Inhibition (50 μM) Mcl-1 [1]: 24.9%

SMILES: COc1cc2c(cc1OC)C(c1ccccc1)N(Cc1ccc(S(=O)(=O)NC(=O)c3ccc(-c4ccc(F)cc4)cc3)cc1)CC2 (stereo not shown) [SZ8TA14]
- inhibition at 25 µM [1]: 35.2%
- inhibition at 50 µM [1]: 58.3%
- inhibition at 25 µM [2]: 14.4%
- inhibition at 50 µM [2]: 13.9%

SMILES: COc1cc2c(cc1OC)C(c1ccccc1)N(Cc1ccc(S(=O)(=O)NC(=O)CCCN3C(=O)C(c4ccc(F)cc4F)=C(c4ccc(F)cc4F)C3=O)cc1)CC2 (stereo not shown) [SZ8TA20]
- inhibition at 25 µM [1]: 23.5%
- inhibition at 25 µM [2]: 9.1%
- inhibition at 50 µM [2]: < 2%

SMILES: COc1cc2c(cc1OC)C(c1ccccc1)N(Cc1ccc(S(=O)(=O)NC(=O)c3ccc(Cc4ccc(OC)c(OC)c4OC)cc3)cc1)CC2 (stereo not shown) [SZ8TA24]
- % Inhibition (25 μM) Mcl-1 [1]: 43.6%
- % Inhibition (50 μM) Mcl-1 [1]: 79.2%

SMILES: COc1cc2c(cc1OC)C(c1ccccc1)N(Cc1ccc(S(=O)(=O)NC(=O)c3ccc(C(c4c[nH]c5ccccc45)c4c[nH]c5ccccc45)cc3)cc1)CC2 (stereo not shown) [SZ8TA31]
- % Inhibition (25 μM) Mcl-1 [1]: <2.0%
- % Inhibition (50 μM) Mcl-1 [1]: <2.0%
- % Inhibition (25 μM) Bcl-XL [2]: <2.0%
- % Inhibition (50 μM) Bcl-XL [2]: <2.0%

SMILES: [N-]=[N+]=NS(=O)(=O)c1ccc(CN(CCSc2ccccc2)Cc2ccc(S(=O)(=O)NC(=O)c3ccccc3)cc2)cc1 [SZ9TA1]
- IC50 [1]: 19.8 µM
- inhibition at 50 µM [2]: 79.5%

SMILES: Cc1nc(-c2ccccc2)sc1C(=O)NS(=O)(=O)c1ccc(CN(CCSc2ccccc2)Cc2ccc(S(=O)(=O)N=[N+]=[N-])cc2)cc1 [SZ9TA3]
- IC50 [1]: 22.7 µM
- inhibition at 50 µM [1]: 83.1%
- inhibition at 50 µM [2]: 21.6%

SMILES: COc1cc(OC)cc(C(=O)NS(=O)(=O)c2ccc(CN(CCSc3ccccc3)Cc3ccc(S(=O)(=O)N=[N+]=[N-])cc3)cc2)c1 [SZ9TA5]
- IC50 [1]: 8.1 µM
- inhibition at 25 µM [1]: 50%
- inhibition at 50 µM [1]: > 99%
- IC50 [2]: 36 µM
- inhibition at 25 µM [2]: 8.6%
- inhibition at 50 µM [2]: 60.3%

SMILES: [N-]=[N+]=NS(=O)(=O)c1ccc(CN(CCSc2ccccc2)Cc2ccc(S(=O)(=O)NC(=O)c3cccc4ccccc34)cc2)cc1 [SZ9TA7]
- IC50 [1]: 8.2 µM
- inhibition at 50 µM [2]: 44.5%

SMILES: [N-]=[N+]=NS(=O)(=O)c1ccc(CN(CCSc2ccccc2)Cc2ccc(S(=O)(=O)NC(=O)c3ccc(-c4ccc(F)cc4)cc3)cc2)cc1 [SZ9TA14]
- % Inhibition (25 μM) Mcl-1 [1]: 30%
- % Inhibition (50 μM) Mcl-1 [1]: 42.5%
- % Inhibition (25 μM) Bcl-XL [2]: 8.4%
- % Inhibition (50 μM) Bcl-XL [2]: 7.0%

SMILES: [N-]=[N+]=NS(=O)(=O)c1ccc(CN(CCSc2ccccc2)Cc2ccc(S(=O)(=O)NC(=O)c3ccc(CCc4ccccn4)cc3)cc2)cc1 [SZ9TA17]
- IC50 [1]: 20.4 µM
- inhibition at 25 µM [1]: 69.3%
- inhibition at 50 µM [1]: 103%
- inhibition at 25 µM [2]: 50%
- inhibition at 50 µM [2]: 63.5%

SMILES: [N-]=[N+]=NS(=O)(=O)c1ccc(CN(CCSc2ccccc2)Cc2ccc(S(=O)(=O)NC(=O)CCCN3C(=O)C(c4ccc(F)cc4F)=C(c4ccc(F)cc4F)C3=O)cc2)cc1 [SZ9TA20]
- inhibition at 25 µM [1]: 15.7%
- inhibition at 50 µM [1]: 6.9%
- inhibition at 25 µM [2]: < 2%
- inhibition at 50 µM [2]: < 2%

SMILES: COc1ccccc1-c1ccc(C(=O)NS(=O)(=O)c2ccc(CN(CCSc3ccccc3)Cc3ccc(S(N)(=O)=O)cc3)cc2)cc1 [SZ10TA21]
- % Inhibition (25 μM) Mcl-1 [1]: 52.3%
- % Inhibition (50 μM) Mcl-1 [1]: 57.3%

SMILES: NS(=O)(=O)c1ccc(CN(CCSc2ccccc2)Cc2ccc(S(=O)(=O)NC(=O)c3ccc4oc(-c5ccccc5)cc4c3)cc2)cc1 [SZ10TA41]
- % Inhibition (25 μM) Mcl-1 [1]: 2.8%
- % Inhibition (50 μM) Mcl-1 [1]: 12.4%

SMILES: CC(C)(C)c1ccc(-c2ccc(S(=O)(=O)NC(=O)c3ccc(-c4ccccn4)cc3)cc2)cc1 [SZ11TA25]
- inhibition at 25 µM [1]: 20.1%
- inhibition at 50 µM [1]: 65.8%

SMILES: CC1(C)CCN(c2ccc(C(=O)NS(=O)(=O)c3ccc(CNc4cccc([N+](=O)[O-])c4)cc3)cc2)CC1 [SZ12TA2]
- % Inhibition (25 μM) Mcl-1 [1]: 7.1%
- % Inhibition (50 μM) Mcl-1 [1]: 54.1%

SMILES: CCOc1ccc(-c2ccc3c(c2)c(C(=O)NS(=O)(=O)c2ccc(CNc4cccc([N+](=O)[O-])c4)cc2)cn3C)cc1F [SZ12TA23]
- % Inhibition (25 μM) Mcl-1 [1]: 6.1%
- % Inhibition (50 μM) Mcl-1 [1]: 21.5%

SMILES: O=C(NS(=O)(=O)c1ccc(CN(CCSc2ccccc2)Cc2c(F)cccc2Cl)cc1)c1cccc2ccccc12 [SZ15TA7]
- IC50 [1]: 15.4 µM

SMILES: COc1ccccc1-c1ccc(C(=O)NS(=O)(=O)c2ccc(-c3ccc(C(F)(F)F)cc3)cc2)cc1 [SZ16TA21]
- % Inhibition (25 μM) Mcl-1 [1]: 26.0%
- % Inhibition (50 μM) Mcl-1 [1]: 80.9%

SMILES: COc1cccc(CN(CCSc2ccccc2)Cc2ccc(S(=O)(=O)NC(=O)c3ccc(Cc4ccc(OC)c(OC)c4OC)cc3)cc2)c1 [SZ17TA24]
- % Inhibition (25 μM) Mcl-1 [1]: 65.1%
- % Inhibition (50 μM) Mcl-1 [1]: 74.1%

SMILES: CC1(C)CCN(c2ccc(C(=O)NS(=O)(=O)CCN3CCc4ccccc4C3)cc2)CC1 [SZ23TA2]
- % Inhibition (25 μM) Mcl-1 [1]: 4.5%
- % Inhibition (50 μM) Mcl-1 [1]: <2.0%

SMILES: O=C(NS(=O)(=O)CCN1CCC(Cc2ccccc2)CC1)c1ccc2c(ccn2Cc2ccc(C(F)(F)F)cc2C(F)(F)F)c1 [SZ24TA30]
- % Inhibition (25 μM) Mcl-1 [1]: 18.1%
- % Inhibition (50 μM) Mcl-1 [1]: 11.4%

SMILES: Cc1nc(-c2ccccc2)sc1C(=O)NS(=O)(=O)c1ccc(-c2ccc(Oc3ccccc3)cc2)cc1 [SZ35TA3]
- % Inhibition (25 μM) Mcl-1 [1]: 18.8%
- % Inhibition (50 μM) Mcl-1 [1]: 87.2%

SMILES: O=C(NS(=O)(=O)c1ccc(-c2ccc(Oc3ccccc3)cc2)cc1)c1cccc2ccccc12 [SZ35TA7]
- % Inhibition (25 μM) Mcl-1 [1]: 28.6%
- % Inhibition (50 μM) Mcl-1 [1]: 87.8%

SMILES: O=C(NS(=O)(=O)c1ccc(-c2ccc(Oc3ccccc3)cc2)cc1)c1ccc(CCc2ccccn2)cc1 [SZ35TA17]
- % Inhibition (25 μM) Mcl-1 [1]: 18.8%
- % Inhibition (50 μM) Mcl-1 [1]: 89.2%

SMILES: COc1ccc(Cc2ccc(C(=O)NS(=O)(=O)c3ccc(-c4ccc(Oc5ccccc5)cc4)cc3)cc2)c(OC)c1OC [SZ35TA24]
- % Inhibition (25 μM) Mcl-1 [1]: 72.3%
- % Inhibition (50 μM) Mcl-1 [1]: 76.4%
